# Measured values reported in patent US20100021940A1, “Method for Determining the Activity of a Protease in a Sample” (ASTRAZENECA AB, priority 2006, published 2010).
# Values joined by “and” are separate entries in the source; they are usually repeats but may differ in a detail not shown here. Identical values can stand only once.
# Experiments:
# MMPs = test: Cleavage of separated diastereomers by MMPs to liberate the reporter; format: biochemical
# MMP3 = MMP3 (Homo sapiens, UniProt P08254); test: Activity of purified MMP on substrate (reporter release); format: biochemical; conditions: Table 1b; MMP3
# Chain of MMP3 (P08254 100-477): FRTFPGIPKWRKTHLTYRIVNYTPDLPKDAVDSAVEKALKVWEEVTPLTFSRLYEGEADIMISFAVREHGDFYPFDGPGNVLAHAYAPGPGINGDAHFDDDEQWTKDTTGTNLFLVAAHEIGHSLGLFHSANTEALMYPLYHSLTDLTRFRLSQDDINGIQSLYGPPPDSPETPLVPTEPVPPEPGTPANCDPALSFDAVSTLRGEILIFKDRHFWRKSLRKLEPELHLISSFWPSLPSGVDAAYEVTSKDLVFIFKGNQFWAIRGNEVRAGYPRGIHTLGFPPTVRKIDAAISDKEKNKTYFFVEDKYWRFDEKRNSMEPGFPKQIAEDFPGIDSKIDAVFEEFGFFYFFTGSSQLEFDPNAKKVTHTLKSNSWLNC
# From the text: (§1) In order to confirm the specificity of the substrates for various MMPs, standard enzymatic assays were adapted to monitor the release of reporter. The reporter was either analysed by a LC-MS method as described in Example 3a, or by a LC-UV method as described in Example 4. A protocol for testing against other matrix metalloproteinases, including MMP9, using expressed and purified pro MMP is described, for instance, by C.
# MMP1 = target: T1, MMP1 (Homo sapiens, UniProt P03956); test: as above; format: biochemical; conditions: Table 1b; MMP1
# T1 sequence (P03956 100-469): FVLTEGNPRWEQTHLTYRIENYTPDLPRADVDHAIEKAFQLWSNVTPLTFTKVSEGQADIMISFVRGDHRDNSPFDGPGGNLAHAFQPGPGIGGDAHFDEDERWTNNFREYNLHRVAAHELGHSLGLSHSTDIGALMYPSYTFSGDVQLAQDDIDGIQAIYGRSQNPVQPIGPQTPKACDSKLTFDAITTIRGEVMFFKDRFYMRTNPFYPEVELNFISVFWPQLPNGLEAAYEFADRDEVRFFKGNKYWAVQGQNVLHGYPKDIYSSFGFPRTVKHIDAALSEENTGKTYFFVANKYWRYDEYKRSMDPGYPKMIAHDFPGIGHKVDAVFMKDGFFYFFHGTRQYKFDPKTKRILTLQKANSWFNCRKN
# From the text: as §1
# MMP8 = target: T2, MMP8 (Homo sapiens, UniProt P22894); test: as above; format: biochemical; conditions: Table 1b; MMP8
# T2 construct: purchased Calbiochem
# T2 sequence (P22894 101-467): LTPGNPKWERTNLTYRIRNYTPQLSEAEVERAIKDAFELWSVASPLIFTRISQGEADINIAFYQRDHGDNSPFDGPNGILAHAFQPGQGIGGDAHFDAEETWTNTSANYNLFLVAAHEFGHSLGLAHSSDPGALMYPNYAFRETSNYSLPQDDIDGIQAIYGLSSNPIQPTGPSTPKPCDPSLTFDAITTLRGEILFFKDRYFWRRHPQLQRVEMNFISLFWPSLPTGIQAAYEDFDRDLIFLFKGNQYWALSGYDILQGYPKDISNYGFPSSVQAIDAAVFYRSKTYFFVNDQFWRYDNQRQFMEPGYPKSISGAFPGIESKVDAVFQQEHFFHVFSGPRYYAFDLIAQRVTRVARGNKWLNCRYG
# Experimental: In order to confirm the specificity of the substrates for various MMPs, standard enzymatic assays were adapted to monitor the release of reporter. The reporter was either analysed by a LC-MS method as described in Example 3a, or by a LC-UV method as described in Example 4. Purified pro-MMP8 is purchased from Calbiochem. The enzyme (at 10 μg/ml) is activated by p-amino-phenyl-mercuric acetate (APMA) at 1 mM for 2.5 h, 35° C. The activated enzyme can be used to monitor activity of substrates as follows: MMP8 (200 ng/ml final concentration) is incubated for 90 minutes at 35° C.
# MMP = MMP activity in synovial fluid (reporter release, HPLC); format: biochemical, human
# Experimental: Synovial fluid (SF) was obtained from patients with rheumatoid arthritis (7 subjects) and systemic lupus erythematosus (SLE) (1 subject).
# The amount of each sample was adjusted so that approximately 4 mg of total protein was used in the assay (Table 13).
# The samples were made up to 180 μl with a buffer consisting of 50 mM Tricine pH 7.5, 200 mM NaCl, 10 mM CaCl2, 20 μM ZnCl2 and 0.05% Brij-35.
# To the samples was added 20 μl of the substrate Methyl 1-acetyl-L-prolyl-L-leucylglycyl-α-R-(4-nitrophenylamino)-glycyl-L-leucylglycinate (Example 1.2) solution (10 mM in methanol). After 3 h incubation at 37° C., the reaction was stopped with 5 μl 200 mM EDTA. The samples were filtered through a precolumn (Waters OASIS HLB Icc, part no. 94225, pre-conditioned with 1 ml of ethanol followed by 1 ml water) which was eluted with 1 ml water and 1 ml of 90% ethanol. The samples were evaporated to dryness under a stream of nitrogen, redissolved in 200 μl 50% ethanol and vigorously mixed with vortex mixer and centrifuged (1000 g, 2 min). Of the supernatant, 10-160 μl aliquots were analysed for the reporter 4-nitroaniline with HPLC (detection as in example 3 or with UV at […]). A standard curve was obtained by from samples spiked with quantified amounts of the reporter (4NA) and treated in the same way as the analytical samples.
# MMP9 = test: Activity of purified MMP on substrate (reporter release); format: biochemical, human; conditions: Table 1b; MMP9
# From the text: In order to confirm the specificity of the substrates for various MMPs, standard enzymatic assays were adapted to monitor the release of reporter. The reporter was either analysed by a LC-MS method as described in Example 3a, or by a LC-UV method as described in Example 4. […] The enzyme can be used to monitor activity of substrates as follows: […]
Activity of selected substrates with MMPs (MMP3),Activity of selected substrates with MMPs (MMP1),Activity of selected substrates with MMPs (MMP8),SMILES,Cleavage by MMPs to liberate the reporter (MMPs),"release of reporter 4-biphenylmethanol (MMP; pooled sample of synovial fluid from all subjects in Table 13, same procedure)",Activity of selected substrates with MMPs (MMP9),"4NA released (MMP activity in synovial fluid) (MMP; synovial fluid of individual subjects (rheumatoid arthritis, SLE), approx. 4 mg total protein, 3 h at 37° C.)"
5.5 units/s (molRXH/molEnz * s),35.4 units/s (molRXH/molEnz * s),26.9 units/s (molRXH/molEnz * s),"COC(=O)CNC(=O)[C@H](CC(C)C)NC(=O)[C@@H](NC(=O)CNC(=O)[C@H](CC(C)C)NC(=O)[C@@H]1CCCN1C(C)=O)OCc1ccc(-c2ccccc2)cc1 (single isomer, unassigned) [Example 1.3, Methyl 1-acetyl-L-prolyl-L-leucylglycyl-α-S-(biphenyl-4-ylmethoxy)-glycyl-L-leucylglycinate]",rapidly cleaved by MMPs,33.2 nmol/ml SF,63.6 units/s (molRXH/molEnz * s),–
–,–,–,"COC(=O)CNC(=O)[C@H](CC(C)C)NC(=O)[C@@H](NC(=O)CNC(=O)[C@H](CC(C)C)NC(=O)[C@@H]1CCCN1C(C)=O)Nc1ccc([N+](=O)[O-])cc1 [Example 1.2, Methyl 1-acetyl-L-prolyl-L-leucylglycyl-α-R-(4-nitrophenylamino)-glycyl-L-leucylglycinate]",rapidly cleaved by MMPs,–,–,94.4 nmol/ml SF and 17.4 nmol/ml SF and 15.9 nmol/ml SF and 23.9 nmol/ml SF and 26.4 nmol/ml SF and 16.5 nmol/ml SF and 20.6 nmol/ml SF and 12.0 nmol/ml SF
0.18 units/s (molRXH/molEnz * s),2.48 units/s (molRXH/molEnz * s),11.4 units/s (molRXH/molEnz * s),"CC(=O)N1CCC[C@H]1C(=O)N[C@@H](CC(C)C)C(=O)NCC(=O)N[C@@H](Nc1ccc([N+](=O)[O-])cc1)C(=O)N[C@@H](Cc1ccccc1)C(=O)Nc1ccccc1 [Example 1.5, 1-acetyl-L-prolyl-L-leucylglycyl-α-R-(4-nitrophenylamino)-glycyl-N-phenyl-L-phenylalaninamide]",rapidly cleaved by MMPs,–,11.5 units/s (molRXH/molEnz * s),–

SMILES,Activity of selected substrates with MMPs (MMP3),Activity of selected substrates with MMPs (MMP1),Activity of selected substrates with MMPs (MMP8),Cleavage by MMPs to liberate the reporter (MMPs),"release of reporter 4-biphenylmethanol (MMP; pooled sample of synovial fluid from all subjects in Table 13, same procedure)",Activity of selected substrates with MMPs (MMP9),"4NA released (MMP activity in synovial fluid) (MMP; synovial fluid of individual subjects (rheumatoid arthritis, SLE), approx. 4 mg total protein, 3 h at 37° C.)"
"COC(=O)CNC(=O)[C@H](CC(C)C)NC(=O)[C@@H](NC(=O)CNC(=O)[C@H](CC(C)C)NC(=O)[C@@H]1CCCN1C(C)=O)Nc1ccc(-c2nnc(-c3ccc(C)cc3)o2)cc1 [Example 1.4, Methyl 1-acetyl-L-prolyl-L-leucylglycyl-α-R-[4-(5-p-tolyl-[1,3,4]oxadiazol-2-yl)-phenylamino]-glycyl-L-leucylglycinate]",0.00 units/s (molRXH/molEnz * s),0.00 units/s (molRXH/molEnz * s),0.05 units/s (molRXH/molEnz * s),rapidly cleaved by MMPs,–,0.58 units/s (molRXH/molEnz * s),–
